Converted amounts (≈) assume the structure as drawn. Counter-ions that a name gives are not always drawn.
Legend:
[1] = Solubility Test-1: dissolution of ginkgo leaf extract dry powder in aqueous solution of the compound; format: physicochemical; design: key: .largecircle.: dissolved to form a transparent aqueous solution; X: insoluble; conditions: 5 g compound in 100 ml water at 20° C., 10 g ginkgo leaf extract, shaken 10 minutes
Method: To each aqueous solution was added 10 g of dry powder of the ginkgo leaf extract and shaken for 10 minutes to observe the dissolution state.

physchem = conditions: water
[2] = Solubility of the organic/inorganic compound in water

Dissolution state [1]	solubility (physchem) [mg/mL]	solubility [2] [mg/mL]	Compound
.largecircle.	190		Cc1ncc(CO)c(CO)c1O.Cl [Pyridoxine hydrochloride]
	625 (≈ 4960 mM)		Oc1cccc(O)c1O [Pyrogallol]
X		0.1 (≈ 0.266 mM)	Cc1cc2nc3c(=O)[nH]c(=O)nc-3n(C[C@H](O)[C@H](O)[C@H](O)CO)c2cc1C [Riboflavin]
X	664 (≈ 1940 mM)		OC[C@H]1O[C@@](CO)(O[C@H]2O[C@H](CO)[C@@H](O)[C@H](O)[C@H]2O)[C@@H](O)[C@@H]1O [Sucrose]
	90 (≈ 719 mM)		NCCS(=O)(=O)O [Taurine]
.largecircle.		1000	Cc1ncc(C[n+]2csc(CCO)c2C)c(N)n1 [Thiamine hydrochloride]
.largecircle.			C[C@@H](O)[C@H](N)C(=O)O [Threonine]
.largecircle.			NC(N)=O [Urea]
	85 (≈ 726 mM)		CC(C)[C@H](N)C(=O)O [Valine]

Continued, compound first:

Compound	Dissolution state [1]	solubility (physchem) [mg/mL]	solubility [2] [mg/mL]
CC(C)(CO)[C@@H](O)C(=O)NCCC(=O)O [Calcium pantothenate]	.largecircle.		
N#CN=C(N)N [Dicyandiamide]	X	32 (≈ 381 mM)	
OCC(O)CO [Glycerin]	X		
Cl.N[C@@H](Cc1c[nH]cn1)C(=O)O [Histidine hydrochloride]			420
CC[C@H](C)[C@H](N)C(=O)O [Isoleucine]		38 (≈ 290 mM)	
CCCCCCCCCCCC[N+](C)(C)C.[Cl-] [Lauryltrimethylammonium chloride, Lauryltrimethyl-ammonium chloride]	.largecircle.	760	
CSCC[C@H](N)C(=O)O [Methionine]	X		33 (≈ 221 mM)
NC(=O)c1cccnc1 [Nicotinic acid amide]	.largecircle.		500 (≈ 4090 mM)
O=C(O)c1cccnc1 [Nicotinic acid]	X		16 (≈ 130 mM)
OC[C@@H](O)[C@@H](O)[C@H](O)[C@@H](O)CO [Sorbitol]	X		720 (≈ 3950 mM)
